In patent US20120064056A1, “DICHLORACETATE IN COMBINATION WITH CLINICALLY HIGH LEVELS OF CARDIOPROTECTIVE OR HEMODYNAMIC DRUGS” (THE GOVERNORS OF THE UNIVERSITY OF ALBERTA TEC Edmonton, priority 2002, published 2012):
Values joined by “and” are separate entries in the source; they are usually repeats but may differ in a detail not shown here. Identical values can stand only once.

What was measured:
isolated rat hearts [1] = experiment: Isolated working rat heart, aerobic perfusion: glycolysis and glucose oxidation; set-up: glycolytic rates (glycolysis) / glucose oxidation rates: unit not given here; settings: for glucose oxidation rates / glycolytic rates (glycolysis): normal hearts, aerobic, DCA 2 mM, digoxin 3 nM, diltiazem 0.8 μM, dobutamine 1 μM, metoprolol 1 μM; for glucose oxidation rates: FIG. 1, 3, 5, 7, control 361±43; for glycolytic rates (glycolysis): FIG. 2, 4, 6, 8, control 3.430±0.604
Method: (§1) Rat hearts were cannulated for isolated working heart perfusions as described in “An imbalance between glycolysis and glucose oxidation is a possible explanation for the detrimental effects of high levels of fatty acids during aerobic reperfusion of ischemic hearts.”, (J Pharmacol Exp Ther. 264:135 (1993); herein incorporated by reference. In brief, male Sprague-Dawley rats (0.3-0.35 kg) were anesthetized with pentobarbital sodium (60 mg/kg IP) and hearts were quickly excised, the aorta was cannulated and a retrograde perfusion at 37° C. was initiated at a hydrostatic pressure of 60 mm Hg. Hearts were trimmed of excess tissue, and the pulmonary artery and the opening to the left atrium were then cannulated. After 15 min of Langendorff perfusion, hearts were switched to the working mode by clamping the aortic inflow line from the Langendorff reservoir and opening the left atrial inflow line. The perfusate was delivered from an oxygenator into the left atrium at a constant preload pressure of 11 mm Hg. Perfusate was ejected from spontaneously beating hearts into a compliance chamber (containing 1 ml of air) and into the aortic outflow line. The afterload was set at a hydrostatic pressure of 80 mm Hg. All working hearts were perfused with Krebs'-Henseleit solution containing calcium 2.5 mmol/L, glucose 5.5 mmol/L, 3% bovine serum albumin (Fraction V, Boehringer Mannheim), and with 1.2 mmol/L palmitate. Palmitate was bound to the albumin as described previously (Saddik M., et al. J Biol. Chem. 267:3825-3831 (1992)). The perfusate was recirculated, and pH was adjusted to 7.4 by bubbling with a mixture containing 95% O2 and 5% CO2. For the aerobic model hearts, all tested compounds were introduced into the heart 5 minutes into the working mode following Langendorff Perfusion.
Glycolysis and glucose oxidation were measured simultaneously by perfusing hearts with [5-^3H/U-^14C] glucose (Liu H., et al. Am J Physiol. 270:H72-H80 (1996); Taegtmeyer Het al. Am J Cardiol. 80:3A-10A (1997)). The total myocardial ^3H2O production and ^14CO2 production were determined at 10 minute intervals for the entirety of the aerobic period, 60 minutes for normal hearts and 30 minutes for the global ischemia and low flow demand ischemia models. In the global ischemia model, the total myocardial ^3H2O and ^14CO2 production were determined at 20 minute intervals for the 60 minute reperfusion period. In the low flow demand ischemia model, the total myocardial ^3H2O and ^14CO2 production were determined at 10 minute intervals for the 30 minute reperfusion period. Glucose oxidation rates were determined by quantitative measurement of ^14CO2 production as described previously (Barbour R. L., et al. Biochemistr. 1923:6503-6062 (1984)).

[2] = tested on: isolated rat hearts subjected to low flow demand ischemia; experiment: Isolated working rat heart, low flow demand ischemia: cardiac function and efficiency; settings: DCA 2 mM, diltiazem 0.8 μM, metoprolol 1 μM
Method: (§2) Hearts were trimmed of excess tissue, and the pulmonary artery and the opening to the left atrium were then cannulated. After 15 min of Langendorff perfusion, hearts were switched to the working mode by clamping the aortic inflow line from the Langendorff reservoir and opening the left atrial inflow line. The perfusate was delivered from an oxygenator into the left atrium at a constant preload pressure of 11 mm Hg. […] The afterload was set at a hydrostatic pressure of 80 mm Hg. […] Palmitate was bound to the albumin as described previously ([…]., et al. J Biol. Chem. 267:3825-3831 (1992)). […] For the aerobic model hearts, all tested compounds were introduced into the heart 5 minutes into the working mode following Langendorff Perfusion. Spontaneously beating hearts were used in all perfusions. Heart rate and aortic pressure were measured with a Biopac Systems Inc. blood pressure transducer connected to the aortic outflow line. Cardiac output and aortic flow were measured with Transonic […] ultrasonic flow probes in the preload and afterload lines, respectively. Coronary flow was calculated as the difference between cardiac output and aortic flow. […] Cardiac work was calculated as the product of systolic pressure and cardiac output. Cardiac efficiency was defined as a ratio of cardiac work to MVO2. […] All tested compounds were introduced into the perfusate five minutes into initiation of aerobic perfusion.

[3] = tested on: isolated rat hearts subjected to global ischemia; experiment: Isolated working rat heart, global no flow ischemia and reperfusion: cardiac function and efficiency; settings: for Aortic Outflow / Cardiac Output / Coronary Flow / HR × PSP / Heart Rate / Peak Systolic Pressure: post-ischemic reperfusion, DCA 2 mM, digoxin 3 nM, metoprolol 1 μM
Method: as §2, with “prior to reperfusion.” for “into initiation of aerobic perfusion.”

isolated rat hearts [4] = experiment: Isolated working rat heart, aerobic perfusion: cardiac function and efficiency; set-up: Cardiac Work (CO · PSP): unit not given beside the values; settings: for Aortic Outflow / Cardiac Efficiency (CW · O2^−1) / Cardiac Output / Cardiac Work (CO · PSP) / Coronary Flow / HR × PSP / Heart Rate / O2 Consumption / Peak Systolic Pressure: aerobically perfused, DCA 2 mM, diltiazem 0.8 μM, digoxin 3 nM, metoprolol 1 μM, dobutamine 1 μM; for effect on functional parameters shown in Table 2 incl. O2 consumption and cardiac efficiency, in words / effect on functional parameters shown in Table 1 (heart rate, peak systolic pressure, HR×PSP), in words: normal hearts, aerobic; for effect on functional parameters shown in Table 2 incl. O2 consumption and cardiac efficiency, in words: compared to control; for effect on functional parameters shown in Table 1 (heart rate, peak systolic pressure, HR×PSP), in words: compared to control (DCA and dobutamine: compared to dobutamine alone)
Method: as §1
Spontaneously beating hearts were used in all perfusions. Heart rate and aortic pressure were measured with a Biopac Systems Inc. blood pressure transducer connected to the aortic outflow line. Cardiac output and aortic flow were measured with Transonic T206 ultrasonic flow probes in the preload and afterload lines, respectively. Coronary flow was calculated as the difference between cardiac output and aortic flow. The O2 contents of the perfusate entering and leaving the heart were measured using YSI™ micro oxygen electrodes placed in the preload and pulmonary arterial lines, respectively. Myocardial O2 consumption (MVO2) was calculated according to the Fick principle, using coronary flow rates and the arteriovenous difference in perfusate O2 concentration. Cardiac work was calculated as the product of systolic pressure and cardiac output. Cardiac efficiency was defined as a ratio of cardiac work to MVO2.

[5] = tested on: isolated rat hearts subjected to global ischemia; experiment: Isolated working rat heart, global ischemia and reperfusion: glycolysis and glucose oxidation; settings: FIG. 10, FIG. 16, DCA 2 mM, digoxin 3 nM, metoprolol 1 μM
Method: Hearts were trimmed of excess tissue, and the pulmonary artery and the opening to the left atrium were then cannulated. After 15 min of Langendorff perfusion, hearts were switched to the working mode by clamping the aortic inflow line from the Langendorff reservoir and opening the left atrial inflow line. The perfusate was delivered from an oxygenator into the left atrium at a constant preload pressure of 11 mm Hg. […] The afterload was set at a hydrostatic pressure of 80 mm Hg. […] Palmitate was bound to the albumin as described previously ([…]., et al. J Biol. Chem. 267:3825-3831 (1992)). […] For the aerobic model hearts, all tested compounds were introduced into the heart 5 minutes into the working mode following Langendorff Perfusion. […] All tested compounds were introduced into the perfusate five minutes prior to reperfusion. […] Am J Physiol. 270:[…]. Am J Cardiol. 80:3A-10A (1997)). […] In the global ischemia model, the total myocardial ^3H2O and ^14CO2 production were determined at 20 minute intervals for the 60 minute reperfusion period. […] L., et al. Biochemistr. 1923:6503-6062 (1984)).

[6] = low flow ischemia: aerobic period
[7] = low flow ischemia: ischemic period

Row | SMILES | glucose oxidation rates (isolated rat hearts [1]) | glycolytic rates (glycolysis) (isolated rat hearts [1]) | Aortic Outflow [3] | Cardiac Output [3] | Coronary Flow [3] | HR × PSP [3] | Heart Rate [3] | Peak Systolic Pressure [3] | Aortic Outflow (isolated rat hearts [4]) | Cardiac Efficiency (CW · O2^−1) (isolated rat hearts [4]) | Cardiac Output (isolated rat hearts [4]) | Cardiac Work (CO · PSP) (isolated rat hearts [4]) | Coronary Flow (isolated rat hearts [4]) | HR × PSP (isolated rat hearts [4]) | Heart Rate (isolated rat hearts [4]) | O2 Consumption (isolated rat hearts [4]) | Peak Systolic Pressure (isolated rat hearts [4]) | effect on functional parameters shown in Table 2 incl. O2 consumption and cardiac efficiency, in words (isolated rat hearts [4]) | effect on functional parameters shown in Table 1 (heart rate, peak systolic pressure, HR×PSP), in words (isolated rat hearts [4]) | other results
1 | O=C(O)C(Cl)Cl [DCA, dichloroacetate] | 1697±179 and 1526±79 | 8.917±3.060 | 14 ± 6 mL/min | 35 ± 5 mL/min | 21 ± 1 mL/min | 18 ± 2 beats · min^−1 · mmHg · 10^−2 | 208 ± 11 beats · min^−1 | 87 ± 9 mmHg | 30 ± 3 mL/min | 1.69 ± 0.19 | 49 ± 4 mL/min | 61 ± 5 | 20 ± 1 mL/min | 32 ± 1 beats · min^−1 · mmHg · 10^−2 | 239 ± 8 beats · min^−1 | 38 ± 5 μmolO2 · g dry wt^−1 · min^−1 | 125 ± 3 mmHg | no effect | no significant effect | increase in glucose oxidation (isolated rat hearts [1]; aerobic model): over 400%; increase in glycolysis (isolated rat hearts [1]; aerobic model): over 300%; Aortic Outflow [2, 6]: 27 ± 3 mL/min; Cardiac Output [2, 6]: 50 ± 2 mL/min; Coronary Flow [2, 6]: 22 ± 1 mL/min; HR × PSP [2, 6]: 30 ± 1 beats · min^−1 · mmHg · 10^−2; Heart Rate [2, 6]: 214 ± 7 beats · min^−1; Peak Systolic Pressure [2, 6]: 139 ± 3 mmHg; Aortic Outflow [2, 7]: 13 ± 5 mL/min; Cardiac Output [2, 7]: 26 ± 5 mL/min; Coronary Flow [2, 7]: 13 ± 1 mL/min; HR × PSP [2, 7]: 30 ± 1 beats · min^−1 · mmHg · 10^−2; Heart Rate [2, 7]: 214 ± 7 beats · min^−1; Peak Systolic Pressure [2, 7]: 139 ± 3 mmHg
2 | C[C@H]1O[C@@H](O[C@H]2[C@@H](O)C[C@H](O[C@H]3[C@@H](O)C[C@H](O[C@H]4CC[C@@]5(C)[C@H](CC[C@@H]6[C@@H]5C[C@@H](O)[C@]5(C)[C@@H](C7=CC(=O)OC7)CC[C@]65O)C4)O[C@@H]3C)O[C@@H]2C)C[C@H](O)[C@@H]1O [Digoxin, digoxin] | – | 5.651±1.298 | 14 ± 3 mL/min | 34 ± 3 mL/min | 20 ± 1 mL/min | 19 ± 2 beats · min^−1 · mmHg · 10^−2 | 207 ± 12 beats · min^−1 | 93 ± 6 mmHg | 31 ± 1 mL/min | – | 52 ± 1 mL/min | 67 ± 3 | 21 ± 1 mL/min | 32 ± 1 beats · min^−1 · mmHg · 10^−2 | 258 ± 11 beats · min^−1 | 37 ± 3 μmolO2 · g dry wt^−1 · min^−1 | 129 ± 4 mmHg | – | no significant effect | recovery of cardiac function of previously ischemic hearts compared to control, in words ([3]; reperfusion period, FIG. 11, FIG. 17): significantly improves the recovery; recovery of cardiac work of previously ischemic hearts compared to control, in words ([3]; reperfusion period, FIG. 12, FIG. 18): significantly improve the recovery; recovery of oxygen consumption of previously ischemic hearts, in words ([3]; reperfusion period, FIG. 13, FIG. 19): significantly improve the recovery; glycolytic rates as compared to control, in words [5]: neither DCA, digoxin, nor digoxin with DCA altered glycolytic rates; Aortic Outflow (isolated rat hearts [4]; listed as digoxin): 31 ± 1 mL/min; Cardiac Work (CO · PSP) (isolated rat hearts [4]; listed as digoxin): 67±3
3 | CC(CCc1ccc(O)cc1)NCCc1ccc(O)c(O)c1 (stereo not shown) [Dobutamine, dobutamine] | 1707±435 | 13.365±1.981 | – | – | – | – | – | – | 32 ± 3 mL/min | 1.56 ± 0.43 | 52 ± 2 mL/min | 64 ± 5 | 20 ± 4 mL/min | 40 ± 2 beats · min^−1 · mmHg · 10^−2 | 333 ± 7 beats · min^−1 | 44 ± 9 μmolO2 · g dry wt^−1 · min^−1 | 124 ± 3 mmHg | no significant effect | – | increase in glucose metabolism (isolated rat hearts [1]; aerobic model): ~400%; HR × PSP (isolated rat hearts [4]; listed as dobutamine): 40±2 beats · min^−1 · mmHg · 10^−2; Heart Rate (isolated rat hearts [4]; listed as dobutamine): 333±7 beats · min^−1
